Results as given in publication PMC2219390 (The Journal of General Physiology, 1996).
Where “and” joins values, the source holds several entries; their conditions need not be identical. Equal entries are not always repeated. Where two headings read alike, the source gives them in different places.

Columns and labels:
[1] = test system: rat brain voltage-dependent sodium channels (BTX-modified); format: biochemical
[2] = Fraction of uncharged molecules at pH 7.4; format: physicochemical
[3] = Fig. 5 A, one channel, +60 mV, low-Kd period

| Structure (SMILES) | Measured FO2 (fractional time in the high affinity conformation) ([1]; 0.4 mM QX-314, +60 mV, six channels, 3.66 h) | Measured FO2 (fractional time in the high affinity conformation) ([1]; 3.0 mM QX-314, +60 mV, two channels, 4.32 h) | block of the small subconductance channel state (~6 pS) ([1]; 30 mM lidocaine (0.2 M NaCl) or 0.4 mM QX-314 (0.5 M NaCl), Fig. 7) | koff (amplitude distribution, beta function fit) [1, 3] | kon (amplitude distribution, beta function fit) [1, 3] | koff ([1]; Table I A, symmetrical 0.5 M NaCl, 160mV as printed, channels a, b, c) | kon rate relative to lidocaine ([1]; low-Kd period, Table I part B) | uncharged molecules [2] |
| --- | --- | --- | --- | --- | --- | --- | --- | --- |
| CC[N+](CC)(CC)CC(=O)Nc1c(C)cccc1C [QX-314, lidocaine N-ethyl] | 0.655 | 0.983 | did not block | 238 s⁻¹ | 896000 M⁻¹ s⁻¹ | 238 s⁻¹ and 253 s⁻¹ and 291 s⁻¹ and 256 s⁻¹ | about six times lower |  |
| CCN(CC)CC(=O)Nc1c(C)cccc1C [lidocaine] |  |  |  |  |  |  |  | ~ 14% |
